Five molecules from patent US12139520B2 (priority 2020, dated 2024) can be followed below.

Numbered stars: 1 amine (or outer) side, 2 acyl side, 3 side chain; on linkers, the order of the positions; unused ones are H or OH. Bridge positions count the residues as written; N and C are the ends. Square brackets hold non-standard residues; d marks the D form. Side chains are listed from the residue outwards. Peptide text beside a SMILES is read from it. * marks the point of attachment. C20 diacid = O=C(O)CCCCCCCCCCCCCCCCCCC(=O)*; γGlu = O=C(O)[C@H](CCC(=O)[*:2])N[*:1]; Hyp = O=C(O)[C@@H]1C[C@@H](O)CN1; AEEA = NCCOCCOCC(=O)O Where only a bound is given, the exact number is not on record here.

One series has as its target T1, hAMY3 receptor (Homo sapiens, UniProt O60896+P30988).
T1 sequence (P30988 25-474): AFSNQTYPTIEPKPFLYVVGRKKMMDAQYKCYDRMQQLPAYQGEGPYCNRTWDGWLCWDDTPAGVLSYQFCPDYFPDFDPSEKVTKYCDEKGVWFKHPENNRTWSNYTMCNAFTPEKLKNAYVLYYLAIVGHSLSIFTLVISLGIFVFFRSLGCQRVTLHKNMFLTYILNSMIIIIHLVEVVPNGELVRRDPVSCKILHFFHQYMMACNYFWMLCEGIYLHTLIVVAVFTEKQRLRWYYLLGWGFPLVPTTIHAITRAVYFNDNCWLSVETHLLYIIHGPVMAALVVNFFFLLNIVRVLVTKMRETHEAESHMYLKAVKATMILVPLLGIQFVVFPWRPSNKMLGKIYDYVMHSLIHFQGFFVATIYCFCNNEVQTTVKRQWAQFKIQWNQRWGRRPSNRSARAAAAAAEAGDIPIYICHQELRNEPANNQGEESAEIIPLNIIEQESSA
T1 sequence (O60896 24-148 partner): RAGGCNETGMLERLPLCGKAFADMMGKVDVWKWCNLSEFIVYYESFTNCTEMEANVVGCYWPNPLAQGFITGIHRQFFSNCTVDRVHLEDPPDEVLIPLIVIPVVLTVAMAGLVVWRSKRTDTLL
In words: cAMP assay for in vitro receptor activation, hAMY3-R. As to conditions: cAMP assay, hAMY3 receptor; read-out: hAMY3R EC50. It counts as cell-based. An outline of the steps: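 Read-out is TR-FRET cAMP signal, recorded one hour after reagent addition, following 30 min room-temperature stimulation of stable hAMY3 cells with graded compound doses in casein/IBMX (0.5 mM) buffer.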

The next series has as its target hAM1 receptor (Homo sapiens, UniProt O60895+Q16602). In words: cAMP assay for in vitro receptor activation, hAM1-R. Format: cell-based. The settings on record: cAMP assay, hAM1 receptor; read-out: hAM1R EC50. In outline:
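Monoclonal stable hAM1-overexpressing cells, thawed from frozen stock; 8000 cells/well in DPBS + 0.05% casein + 0.5 mM IBMX; read-out cAMP.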

The nature of series [1]: Acute food intake study in lean rats. Format: in vivo, rat. As to conditions: single SC injection, lean healthy rats; for Average cumulative food intake: up to 48 h, P < 0.001 vs vehicle. On the procedure:
General Protocols for Acute Food Intake Study
The effect on cumulative food intake was measured in male Sprague Dawley rats (6 weeks of age, Taconic, Denmark) following a single dose using a fully automated food intake monitoring system (HM-2; MBRose ApS, Faaborg, Denmark), allowing for advanced synchronous real-time monitoring of food intake behaviour of individual animals. The animals were housed in groups of 4 in a light-, temperature-, and humidity-controlled room (a 12/12 LD cycle, lights on at 02:00 AM; 22±2° C.; 50% relative humidity). The mice had ad libitum access to regular chow diet (Altromin 1324, Brogaarden A/S, Lynge, Denmark) and domestic quality tap water. Mice arrived at day 7, and a minimum of 5 days of habituation to the system was allowed prior to beginning of the study. During these days, the animals were handled daily to accustom them to the experimental paradigm. On the day of dosing, the animals were randomized into groups according to body weight. Animals were fasted for four hours prior to dosing. Animals were dosed SC 30 or 180 min prior to lights out, and food intake data were collected automatically for a total of 48 h post-dosing with automatic food recordings every 5 min.

A short description of series [2]: Physical stability of peptide analogues (Thioflavin T fibrillation). The settings on record: maximum ThT signal normalized between hAMY maximum and buffer background; 40° C., shaking, four days; pH 7 per table title. It counts as physicochemical. In outline: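 Samples are stressed at 40 °C for four days, being shaken at 700 rpm before each 10-min fluorescence reading of 4 μM Thioflavin T. Buffers were pH 4 acetate or pH 7 phosphate. Reported values are smoothed maximum ThT signals as a percentage of the hAMY-to-background range.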

Sequence of hAM1 receptor (Q16602 23-461): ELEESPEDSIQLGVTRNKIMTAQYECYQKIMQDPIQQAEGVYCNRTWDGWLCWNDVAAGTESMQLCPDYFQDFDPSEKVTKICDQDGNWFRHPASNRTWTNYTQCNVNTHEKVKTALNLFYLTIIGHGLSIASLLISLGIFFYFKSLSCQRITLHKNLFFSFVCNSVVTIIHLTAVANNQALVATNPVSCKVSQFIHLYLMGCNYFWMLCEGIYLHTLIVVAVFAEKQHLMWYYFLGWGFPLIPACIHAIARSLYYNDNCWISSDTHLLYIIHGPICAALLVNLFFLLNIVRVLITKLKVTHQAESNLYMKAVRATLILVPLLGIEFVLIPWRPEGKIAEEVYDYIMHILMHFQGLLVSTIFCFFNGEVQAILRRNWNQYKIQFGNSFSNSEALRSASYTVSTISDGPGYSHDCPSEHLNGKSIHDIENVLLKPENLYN
Sequence of hAM1 receptor (O60895 43-175 partner): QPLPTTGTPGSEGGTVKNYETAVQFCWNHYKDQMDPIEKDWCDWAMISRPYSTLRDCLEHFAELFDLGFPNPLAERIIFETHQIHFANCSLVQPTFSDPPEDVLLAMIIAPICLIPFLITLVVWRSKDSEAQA

On to `CC[C@H](C)[C@H](NC(=O)[C@H](CCC(N)=O)NC(=O)[C@H](Cc1c[nH]cn1)NC(=O)[C@H](C)NC(=O)[C@H](CC(C)C)NC(=O)[C@H](CCCNC(=N)N)NC(=O)[C@H](CC(=O)O)NC(=O)[C@@H](NC(=O)[C@@H](NC(=O)[C@@H]1CSSC[C@H](NC(=O)[C@H](CCCCN)NC(=O)CC[C@H](NC(=O)CCCCCCCCCCCCCCCCCCC(=O)O)C(=O)O)C(=O)N[C@@H](CC(N)=O)C(=O)N[C@@H]([C@@H](C)O)C(=O)N[C@@H](C)C(=O)N[C@@H]([C@@H](C)O)C(=O)N1)[C@@H](C)O)C(C)C)C(=O)N[C@@H](Cc1ccc(O)cc1)C(=O)N[C@@H](CCC(N)=O)C(=O)N[C@@H](Cc1ccccc1)C(=O)N[C@H](C(=O)N[C@@H](CC(=O)O)C(=O)N[C@@H](CCCCN)C(=O)N[C@@H](CC(=O)O)C(=O)N[C@@H](CCCCN)C(=O)N[C@@H](CC(=O)O)C(=O)N[C@@H](CC(N)=O)C(=O)N[C@H](C(=O)N[C@@H](C)C(=O)N1CCC[C@H]1C(=O)N1CCC[C@H]1C(=O)N[C@H](C(=O)N[C@@H](CC(N)=O)C(=O)N[C@H](C(=O)NCC(=O)N[C@@H](CO)C(=O)N[C@@H](CC(N)=O)C(=O)NCC(=O)N1C[C@H](O)C[C@H]1C(N)=O)C(C)C)[C@@H](C)O)C(C)C)[C@@H](C)O` [compound 4] ({C20 diacid-γGlu}-KCNTATCTVDRLAHQIYQFTDKDKDNVAPPTNVGSNG[Hyp]-NH2; disulfide 2-7), for which the EC50 on hAMY3 receptor is 0.006 nM; at hAM1 receptor, above 5000 nM. Moreover, the “cumulative food intake, % to vehicle” value in series [1] (10 nmol/kg) came to 59.23%; in series [1] (30 nmol/kg), 30.86%. Further, the “Average cumulative food intake” value in series [1] (10 nmol/kg) was determined as 26.3 g; in series [1] (30 nmol/kg), 13.7 g.

Turning to `CC[C@H](C)[C@H](NC(=O)[C@H](CCC(N)=O)NC(=O)[C@H](CCC(=O)O)NC(=O)[C@H](C)NC(=O)[C@H](CC(C)C)NC(=O)[C@H](CCCNC(=N)N)NC(=O)[C@H](CCC(N)=O)NC(=O)[C@@H](NC(=O)[C@@H](NC(=O)[C@@H]1CSSC[C@H](NC(=O)[C@@H](N)CCCCN)C(=O)N[C@@H](CC(N)=O)C(=O)N[C@@H]([C@@H](C)O)C(=O)N[C@@H](C)C(=O)N[C@@H]([C@@H](C)O)C(=O)N1)[C@@H](C)O)C(C)C)C(=O)N[C@@H](Cc1ccc(O)cc1)C(=O)N[C@@H](CCC(N)=O)C(=O)N[C@@H](Cc1ccccc1)C(=O)N[C@H](C(=O)N[C@@H](CC(=O)O)C(=O)N[C@@H](CCCCN)C(=O)N[C@@H](CC(=O)O)C(=O)N[C@@H](CCCCN)C(=O)N[C@@H](CC(=O)O)C(=O)N[C@@H](CC(N)=O)C(=O)N[C@H](C(=O)N[C@@H](C)C(=O)N1CCC[C@H]1C(=O)N1CCC[C@H]1C(=O)N[C@H](C(=O)N[C@@H](CC(N)=O)C(=O)N[C@H](C(=O)NCC(=O)N[C@@H](CO)C(=O)N[C@@H](CCCCNC(=O)COCCOCCNC(=O)COCCOCCNC(=O)CC[C@H](NC(=O)CCCCCCCCCCCCCCCCCCC(=O)O)C(=O)O)C(=O)NCC(=O)N1C[C@H](O)C[C@H]1C(N)=O)C(C)C)[C@@H](C)O)C(C)C)[C@@H](C)O` [compound 6] (H-KCNTATCTVQRLAEQIYQFTDKDKDNVAPPTNVGSK([AEEA-AEEA-γGlu-C20 diacid])G[Hyp]-NH2; disulfide 2-7; N-terminus assumed), the EC50 at hAMY3 receptor was 0.006 nM. In addition, the EC50 at hAM1 receptor is above 5000 nM. Also, in series [1] (10 nmol/kg), the “cumulative food intake, % to vehicle” value came to 65.63% and the “Average cumulative food intake” value came out at 27.5 g.

Consider `CC[C@H](C)[C@H](NC(=O)[C@H](CCC(N)=O)NC(=O)[C@H](Cc1c[nH]cn1)NC(=O)[C@H](C)NC(=O)[C@H](CC(C)C)NC(=O)[C@H](CCCNC(=N)N)NC(=O)[C@H](CCC(N)=O)NC(=O)[C@@H](NC(=O)[C@@H](NC(=O)[C@@H]1CSSC[C@H](NC(=O)[C@H](CCCCN)NC(=O)CC[C@H](NC(=O)CCCCCCCCCCCCCCCCCCC(=O)O)C(=O)O)C(=O)N[C@@H](CC(N)=O)C(=O)N[C@@H]([C@@H](C)O)C(=O)N[C@@H](C)C(=O)N[C@@H]([C@@H](C)O)C(=O)N1)[C@@H](C)O)C(C)C)C(=O)N[C@@H](C)C(=O)N[C@@H](CCC(N)=O)C(=O)N[C@@H](Cc1ccccc1)C(=O)N[C@H](C(=O)N[C@@H](CC(=O)O)C(=O)N[C@@H](CCCCN)C(=O)N[C@@H](CC(=O)O)C(=O)N[C@@H](CCCCN)C(=O)N[C@@H](CC(=O)O)C(=O)N[C@@H](CC(N)=O)C(=O)N[C@H](C(=O)N[C@@H](C)C(=O)N1CCC[C@H]1C(=O)N1CCC[C@H]1C(=O)N[C@H](C(=O)N[C@@H](CC(N)=O)C(=O)N[C@H](C(=O)NCC(=O)N[C@@H](CO)C(=O)N[C@@H](CC(N)=O)C(=O)N[C@@H](CO)C(=O)N1C[C@H](O)C[C@H]1C(N)=O)C(C)C)[C@@H](C)O)C(C)C)[C@@H](C)O` [compound 69] ({C20 diacid-γGlu}-KCNTATCTVQRLAHQIAQFTDKDKDNVAPPTNVGSNS[Hyp]-NH2; disulfide 2-7), for which, on hAMY3 receptor, the EC50 was determined as 0.013 nM. Further, in series [1] (10 nmol/kg), the “cumulative food intake, % to vehicle” value was found to be 17.52% and the “Average cumulative food intake” value stood at 7.13 g.

On to `CC[C@H](C)[C@H](NC(=O)[C@H](CCCCN)NC(=O)[C@@H](NC(=O)[C@H](CCCNC(=N)N)NC(=O)[C@@H]1CCCN1C(=O)[C@H](C)NC(=O)[C@@H](NC(=O)[C@H](CC(N)=O)NC(=O)[C@H](CC(=O)O)NC(=O)[C@H](CCCCN)NC(=O)[C@H](CC(=O)O)NC(=O)[C@H](CCCCN)NC(=O)[C@H](CC(=O)O)NC(=O)[C@@H](NC(=O)[C@H](Cc1ccccc1)NC(=O)[C@H](CCC(N)=O)NC(=O)[C@H](Cc1ccc(O)cc1)NC(=O)[C@@H](NC(=O)[C@H](CCC(N)=O)NC(=O)[C@H](Cc1c[nH]cn1)NC(=O)[C@H](C)NC(=O)[C@H](CC(C)C)NC(=O)[C@H](CCCNC(=N)N)NC(=O)[C@H](CCC(N)=O)NC(=O)[C@@H](NC(=O)[C@@H](NC(=O)[C@@H]1CSSC[C@H](NC(=O)CN)C(=O)N[C@@H](CCCNC(=N)N)C(=O)N[C@@H](Cc2ccccc2)C(=O)NCC(=O)N[C@@H]([C@@H](C)O)C(=O)N1)[C@@H](C)O)C(C)C)[C@@H](C)CC)[C@@H](C)O)C(C)C)[C@@H](C)O)C(=O)NCC(=O)N1CCC[C@H]1C(=O)N[C@@H](CC(N)=O)C(=O)NCC(=O)N1C[C@H](O)C[C@H]1C(N)=O` [compound 124] (H-GCRFGTCTVQRLAHQIYQFTDKDKDNVAPRTKIGPNG[Hyp]-NH2; disulfide 2-7), for which the EC50 at hAMY3 receptor was 0.027 nM. For the same molecule, the “Max ThT signal (%)” value in series [2] is given as 4.800%. Also, in series [1] (10 nmol/kg), the “cumulative food intake, % to vehicle” value is recorded as 59.46% and the “Average cumulative food intake” value is 24.2 g.

On to `CC[C@H](C)[C@H](NC(=O)[C@H](CCC(N)=O)NC(=O)[C@H](Cc1c[nH]cn1)NC(=O)[C@H](C)NC(=O)[C@H](CC(C)C)NC(=O)[C@H](CCCNC(=N)N)NC(=O)[C@H](CCC(N)=O)NC(=O)[C@@H](NC(=O)[C@@H](NC(=O)[C@@H]1CSSC[C@H](NC(=O)CN)C(=O)N[C@@H](CCCNC(=N)N)C(=O)N[C@@H](Cc2ccccc2)C(=O)NCC(=O)N[C@@H]([C@@H](C)O)C(=O)N1)[C@@H](C)O)C(C)C)C(=O)N[C@@H](Cc1ccc(O)cc1)C(=O)N[C@@H](CCC(N)=O)C(=O)N[C@@H](Cc1ccccc1)C(=O)N[C@H](C(=O)N[C@@H](CC(=O)O)C(=O)N[C@@H](CCCCN)C(=O)N[C@@H](CC(=O)O)C(=O)N[C@@H](CCCCN)C(=O)N[C@@H](CC(=O)O)C(=O)N[C@@H](CC(N)=O)C(=O)N[C@H](C(=O)N[C@@H](C)C(=O)N1CCC[C@H]1C(=O)N[C@@H](CCCNC(=N)N)C(=O)N[C@@H](CO)C(=O)N[C@@H](CC(N)=O)C(=O)N[C@H](C(=O)N[C@@H](CO)C(=O)N1CCC[C@H]1C(=O)N[C@@H](CC(N)=O)C(=O)NCC(=O)N[C@@H](Cc1ccc(O)cc1)C(N)=O)[C@@H](C)CC)C(C)C)[C@@H](C)O` [compound 383] (H-GCRFGTCTVQRLAHQIYQFTDKDKDNVAPRSNISPNGY-NH2; disulfide 2-7; N-terminus assumed), for which the concentration for a half-maximal effect (EC50) on hAMY3 receptor was determined as 0.034 nM; at hAM1 receptor it was 5.94 nM. Also, the “Max ThT signal (%)” value in series [2] came out at 9.600%.
